The test system of data set [1] is Onub\Orco + Onub\Or1. Nature of the data set: Inhibition of odorant (E12-14:OAc) activation of Onub\Orco + Onub\Or1 in Xenopus oocytes. Type of data set: cell-based, Ostrinia nubilalis. The note with it: OLC compound 100 µM. On the procedure:
(§1) Oocytes were surgically removed from mature Xenopus laevis frogs. Follicle cells were removed by treatment with Collagenase B (Boehringer Mannhem) for 2 hours at room temperature. Capped cRNA encoding each DmOR subunit was generated using mMessage mMachine kits (Ambion). For heteromeric ORs, 25 ng of cRNA encoding each OR subunit was injected into Stage V-VI Xenopus oocytes. For expression of Orco alone, 50 ng of cRNA was injected. Oocytes were incubated at 18°C in Barth’s saline (in mM: 88 NaCl, 1 KCl, 2.4 NaHCO3, 0.3 CaNO3, 0.41 CaCl2, 0.82 MgSO4, 15 HEPES, pH 7.6, and 150 µg/ml ceftazidime) for 2–5 days prior to electrophysiological recording.
Odorant and Orco ligand induced currents were recorded under two-electrode voltage clamp in Xenopus laevis oocytes expressing ORs, using an automated parallel electrophysiology system (OpusExpress 6000A; Molecular Devices). Oocytes were perfused with ND96 (in mM: 96 NaCl, 2 KCl, 1 CaCl2, 1 MgCl2, 5 HEPES, pH 7.5). Odorant stock solutions (0.5 or 1 M) and Orco ligand stock solutions (100 mM) were prepared in DMSO and diluted in ND96. […]
Initial analysis of electrophysiological data was done using Clampfit 9.1 software (Molecular Devices). […] Statistical significance was assessed using a two-tailed unpaired t test, an F test, or a one-way analysis of variance followed by the Bonferroni’s post-test, as appropriate.

For the next data set, the target named is T1, Dmel\Orco (Drosophila melanogaster, UniProt Q9VNB5).
T1 construct: expressed in transfected cells; host or cells: Xenopus laevis oocytes (cRNA injection, pGEMHE)
T1 sequence (Q9VNB5 1-486): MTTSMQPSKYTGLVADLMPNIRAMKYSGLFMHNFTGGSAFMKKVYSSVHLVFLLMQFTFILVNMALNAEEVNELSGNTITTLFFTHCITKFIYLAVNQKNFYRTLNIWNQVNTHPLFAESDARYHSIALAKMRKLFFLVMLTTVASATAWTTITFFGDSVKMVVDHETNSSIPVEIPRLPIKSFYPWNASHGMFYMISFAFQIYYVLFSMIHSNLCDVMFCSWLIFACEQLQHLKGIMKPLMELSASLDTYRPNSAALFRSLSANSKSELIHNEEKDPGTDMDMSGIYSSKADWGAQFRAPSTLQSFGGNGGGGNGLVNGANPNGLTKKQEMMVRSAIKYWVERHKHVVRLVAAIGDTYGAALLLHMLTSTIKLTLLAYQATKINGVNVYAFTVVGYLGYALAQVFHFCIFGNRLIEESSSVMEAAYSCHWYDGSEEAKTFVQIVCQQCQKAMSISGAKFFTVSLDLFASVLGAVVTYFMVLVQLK
Nature of the data set: Agonist activation of homomeric Dmel\Orco in Xenopus oocytes, two-electrode voltage clamp. In kind it is cell-based. The note with it: read-out: Response amplitude as percentage of response to 100 µM OLC3, Dmel\Orco. On the procedure:
as §1
(§2) Odorant and Orco ligand induced currents were recorded under two-electrode voltage clamp in Xenopus laevis oocytes expressing ORs, using an automated parallel electrophysiology system (OpusExpress 6000A; Molecular Devices). Oocytes were perfused with ND96 (in mM: 96 NaCl, 2 KCl, 1 CaCl2, 1 MgCl2, 5 HEPES, pH 7.5). Odorant stock solutions (0.5 or 1 M) and Orco ligand stock solutions (100 mM) were prepared in DMSO and diluted in ND96. Unless otherwise noted, applications were for 60 sec at a flow rate of 1.0 ml/min, with extensive washing in ND96 (9 or 20 min at 4.6 ml/min) between applications. Micropipettes were filled with 3 M KCl and had resistances of 0.2−2.0 MΩ. The holding potential was −70 mV. Current responses, filtered (4-pole, Bessel, low pass) at 20 Hz (−3 db) and sampled at 100 Hz, were captured and stored using OpusXpress 1.1 software (Molecular Devices).
Initial analysis of electrophysiological data was done using Clampfit 9.1 software (Molecular Devices). Curve fitting and statistical analyses were done using Prism 5 (Graphpad). Concentration-response data were fit to the equation: I = Imax/(1+(EC50/X)^n) where I represents the current response at a given concentration of odorant, X; Imax is the maximal response; EC50 is the concentration of agonist yielding a half maximal response; n is the apparent Hill coefficient. Concentration-inhibition data were fit to the equation: I = Imax/(1+(X/IC50)^n) where I represents the current response at a given concentration of inhibitor, X; Imax is the maximal response in the absence of inhibitor; IC50 is the concentration of inhibitor present that still allows a half maximal response from odorant; n is the apparent Hill coefficient. Statistical significance was assessed using a two-tailed unpaired t test, an F test, or a one-way analysis of variance followed by the Bonferroni’s post-test, as appropriate.

The nature of data set [2]: Solubility in recording solution (observation). In kind it is physicochemical. The note with it: aqueous recording solution, higher concentrations (OLC2: above 100 µM). The method, then:
as §2

Another data set deals with T2, Agam\Orco + Agam\Or65 (Anopheles gambiae, UniProt Q7QCC7).
T2 construct: expressed in transfected cells; host or cells: Xenopus laevis oocytes (cRNA injection; vectors pSP64T-Oligo and pT7TS)
T2 sequence (Q7QCC7 1-478): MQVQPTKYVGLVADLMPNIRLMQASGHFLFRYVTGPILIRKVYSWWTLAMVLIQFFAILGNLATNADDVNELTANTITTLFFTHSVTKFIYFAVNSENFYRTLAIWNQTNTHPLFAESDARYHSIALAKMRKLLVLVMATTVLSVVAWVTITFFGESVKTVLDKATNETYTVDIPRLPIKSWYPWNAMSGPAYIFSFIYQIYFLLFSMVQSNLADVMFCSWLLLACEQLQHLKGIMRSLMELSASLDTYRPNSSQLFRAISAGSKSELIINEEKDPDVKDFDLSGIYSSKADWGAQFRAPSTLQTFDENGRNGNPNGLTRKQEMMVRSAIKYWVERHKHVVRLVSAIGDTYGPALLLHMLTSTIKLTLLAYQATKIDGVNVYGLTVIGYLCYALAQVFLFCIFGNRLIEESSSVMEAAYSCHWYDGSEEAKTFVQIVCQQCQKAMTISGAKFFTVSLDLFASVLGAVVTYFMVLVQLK
Nature of the data set: Inhibition of odorant (eugenol) activation of Agam\Orco + Agam\Or65 in Xenopus oocytes. The settings on record: 100 nM eugenol; OLC compound 100 µM. In kind it is cell-based, A. gambiae.

Data set [3] relates to Onub\Orco + Onub\Or1. The experiment in a line: Agonist activation of Onub\Orco + Onub\Or1 in Xenopus oocytes, two-electrode voltage clamp. In kind it is cell-based, Ostrinia nubilalis. The note with it: 100 µM compound; mean ± SEM, n=3-8. For orientation: In two-electrode clamp one electrode senses voltage and the other passes current.

`CCc1ccc(NC(=O)CSc2nnc(-c3ccccn3)n2CC)cc1` [OLC2]: the “Inhibition of activation of Onub\Orco+Onub\Or1 by E12-14:OAc” value in the data set on Onub\Orco + Onub\Or1 [1] is “inhibited”. Also, the Emax at 100 µM on Dmel\Orco amounted to 0%. Also, in data set [2], the Solubility result is “poor solubility”. Besides, the “Inhibition of activation of Agam\Orco+Agam\Or65 by eugenol” value on Agam\Orco + Agam\Or65 is on record as “inhibited”. Further, the “Response amplitude as percentage of response to 100 µM OLC3, Onub\Orco + Onub\Or1” value in the data set on Onub\Orco + Onub\Or1 [3] came out at 9 ± 2%.
Consider `CCCCc1ccc(NC(=O)CSc2nnc(-c3ccccn3)n2CC)cc1` [OLC15], for which the “Inhibition of activation of Onub\Orco+Onub\Or1 by E12-14:OAc” value with Onub\Orco + Onub\Or1 [1] was “inhibited”. Also, the Emax at 100 µM at Dmel\Orco is 0%. Further, the “Inhibition of activation of Agam\Orco+Agam\Or65 by eugenol” value on Agam\Orco + Agam\Or65 is on record as “inhibited”.

(Values after article PMC3348135, “Identification of New Agonists and Antagonists of the Insect Odorant Receptor Co-Receptor Subunit” (PLoS ONE, 2012).)
